Values quoted from earlier work in patent US8992947B2, “Method for predicting therapeutic effect of chemotherapy on renal cell cancer” (Taiho Pharmaceutical Co., Ltd., priority 2009, dated 2015).

Test system: renal cell carcinoma
Details: most effective agent in summary of 83 clinical test results

| Structure (SMILES) | response rate [%] |
| --- | --- |
| O=c1[nH]cc(F)c(=O)[nH]1 [5-fluorouracil (5-FU), 5-fluorouracil] | 13.4 |
| O=c1[nH]c(=O)n([C@H]2C[C@H](O)[C@@H](CO)O2)cc1F [floxuridine] | 13.4 |
